Measurements: US20080069869A1, “Formulations and methods for modulating satiety” (priority 2004, published 2008)
Read-outs that look alike come from different tables or passages of the source.

Assays:
CCKA receptors = biological target: T1, CCKA receptors (Homo sapiens, UniProt P32238); conditions: de Montigny 1989; cited from earlier work
T1 sequence (P32238 1-428): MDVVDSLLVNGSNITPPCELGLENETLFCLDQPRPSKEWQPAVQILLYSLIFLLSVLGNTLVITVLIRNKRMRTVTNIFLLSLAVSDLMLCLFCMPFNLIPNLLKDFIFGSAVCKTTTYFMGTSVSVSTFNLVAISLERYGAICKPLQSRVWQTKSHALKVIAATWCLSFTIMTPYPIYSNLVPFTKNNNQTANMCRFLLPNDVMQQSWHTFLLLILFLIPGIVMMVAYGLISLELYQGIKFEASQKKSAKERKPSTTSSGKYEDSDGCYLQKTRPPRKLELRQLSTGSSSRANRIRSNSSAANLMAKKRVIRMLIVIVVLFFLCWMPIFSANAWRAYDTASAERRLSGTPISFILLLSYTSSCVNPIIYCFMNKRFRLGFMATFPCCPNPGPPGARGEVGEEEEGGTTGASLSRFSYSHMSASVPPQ

[1] = Pharmacokinetic study: plasma CCK-8 levels after one oral enteric-coated capsule (Example 3); type: in vivo, human
Procedure: Secondarily, it was desired to ascertain the time it would take to reach peak plasma levels. Each individual ingested the capsule in the fasting state (not having eaten for at least 8 hours). Blood was then drawn every 10 minutes for one hour. […] Plasma was drawn off from each tube and frozen. The frozen plasma was sent to Mt. Sinai Hospital in Canada for measurement of CCK-8 levels.

[2] = test system: pancreatic amylase secretion; conditions: Crawley and Corwin; cited from earlier work
[3] = in vivo; cited from earlier work
[4] = cited from earlier work

Compound: CCK-4: the tetrapeptide, CCK-4 (CCK30-33)
- lower affinity for CCKA receptors than the sulfated form of CCK-8 (CCKA receptors): 10,000 fold

Compound: Asp-Tyr(SO3H)-Met-Gly-Trp-Met-Asp-Phe-NH2 [CCK-8]
- CCK-8 level (plasma) ([1]; Individual #1, 10 minutes post-ingestion, one enteric-coated capsule with 9.2 micrograms CCK-8 and an enzyme inhibitor, fasting): 3.268 picomoles/liter (pm/L)
- CCK-8 level (plasma) ([1]; Individual #1, remaining 5 measurements (every 10 minutes up to one hour), 9.2 micrograms capsule with enzyme inhibitor): detected no CCK-8
- CCK-8 level (plasma) ([1]; Individual #2, 10 minutes post-ingestion, 9.2 micrograms capsule with enzyme inhibitor, fasting): 0.7625 pm/L
- CCK-8 level (plasma) ([1]; Individual #2, 20 minutes, 9.2 micrograms capsule with enzyme inhibitor, fasting): 3.326 pm/L
- CCK-8 level (plasma) ([1]; Individual #2, next 4 measurements (30-60 minutes)): detected no CCK-8
- CCK-8 level (plasma) ([1]; Individual #3 (BMI 24), 10 minutes post-ingestion, 9.2 micrograms capsule with enzyme inhibitor, fasting): 0.0 pm/L
- CCK-8 level (plasma) ([1]; Individual #3 (BMI 24), 20 minutes, 9.2 micrograms capsule with enzyme inhibitor, fasting): 4.375 pm/L
- CCK-8 level (plasma) ([1]; Individual #3, next 4 measurements (30-60 minutes)): detected no CCK-8
- more potent than unsulfated CCK-8 or CCK-4 in stimulating pancreatic amylase secretion [2]: approximately 1000 fold
- oral bio-availability [3]: less than 1%

Compound: O[C@H](CS)[C@H](O)CS (racemic) [dithiothreitol]
- increase in absorption and biliary recovery of a tripeptide over control rats ([4]; ileum): four-fold
- increase in absorption and biliary recovery of a tripeptide over control rats ([4]; proximal colon): 70 fold
